Literature values as cited in patent US20090234270A1, “Therapy and device for treatment of nail infections” (Ondine International, Ltd., priority 2008, published 2009).

Legend:
[1] = in vivo, po

SMILES	side effects [1]	also measured
CCC(C)n1ncn(-c2ccc(N3CCN(c4ccc(OCC5COC(Cn6cncn6)(c6ccc(Cl)cc6Cl)O5)cc4)CC3)cc2)c1=O (stereo not drawn) [itraconazole]	somewhat severe	–
COC1=CC(=O)C[C@@H](C)[C@]12Oc1c(Cl)c(OC)cc(OC)c1C2=O [Griseofulvin]	undesired side effects	efficacy in onychomycosis (onychomycosis; oral medicine): largely ineffectual
CC12CCC(CC1=O)C2(C)C (stereo not drawn) [camphor]	–	solubility in water: poorly soluble in water
OC(Cn1cncn1)(Cn1cncn1)c1ccc(F)cc1F [Fluconazole]	severe side effects	–
CN(C/C=C/C#CC(C)(C)C)Cc1cccc2ccccc12 [Lamisil, terbinafine]	–	nail clearing, share of patients (onychomycosis; oral, once a day for 90 days, clearing for one year): 70-80%
